According to patent US20170273917A1, “NMDA RECEPTOR ANTAGONISTS FOR TREATING GAUCHER DISEASE” (Yeda Research and Development Co. Ltd., priority 2014, published 2017):

Key:
[1] = test system: inbred mouse strains; test: Survival of inbred mouse strains injected daily with CBE (GD induction); type: in vivo; settings: for Average survival time: CBE 25 mg/kg/day i.p. daily from P8
Description: Mice—Pure inbred mouse strains were obtained from the Jackson laboratories (USA), Harlan UK and Harlan Israel. Specifically, BTBR T^+ Itpr3^tf/J C3H/HeJ, DBA/2J, MRL/MpJ, WSB/EiJ, MOLF/Ei, PWD/PhJ, KK/HiJ, BPL/1J, I/LnJ, BPN/3J, and LP/J were obtained from Jackson; A/J, AKR/J, NZW/LacJ, 129S1/SvImJ were obtained from Harlan laboratories in the UK; and C57BL/6JOlaHsd, BALB/cJ and FVB/NJ were obtained from the Harlan laboratories in Israel. Gba^flox/flox; nestin-Cre mice, a mouse model of GD were generated as described in Vitner et al. Nature Medicine (2014) 20: 204-208; and Enquist, I. B. et al. Proc. Natl. Acad. Sci. USA (2007) 104: 17483-17488. These mice recapitulate many features of human nGD, although their Gba1 deficiency is restricted to neural and macroglial lineages. Mice were maintained under specific pathogen-free conditions and handled according to protocols approved by the Weizmann Institute Animal Care Committee according to international guidelines.
CBE injections—Conduritol-β-epoxide (CBE) was obtained from Calbiochem Millipore (Darmstadt, Germany). CBE at a dose of 25 mg or 50 mg per kg body weight per day or PBS (control) were administered i.p. to mice daily starting from postnatal day 8 (P8) of age.
To study the potential of different mouse stains to serve as a reliable model for Type 2/3 GD, 15 different inbred mouse strains were chosen. CBE has been used to induce GD in mice for many years (Mumford et al., 1975), and it was used to generate the first animal model for GD disease. CBE is water soluble and crosses the blood brain barrier. The 15 mice strains chosen have diverse phylogenetic origins and their SNP profile is freely available (FIG. 1A). Mice were daily injected i.p. with 25 mg/kg/day of CBE starting on postnatal day 8 and for the rest of their lives (Vitner et al., 2014). […] The strains could be divided into two groups: mice in the first group were very homogeneous in their behavior; they developed a very aggressive disease with a short life span. The second group of strains presented a much longer life expectancy with a broader spectrum of phenotypes.

[2] = test system: rat hippocampal neurons; settings: rat hippocampal neurons treated with CBE; high concentrations of glutamate; in vitro; cited from earlier work
[3] = test system: CD68-positive cells in cortical layer V; test: Immunohistochemistry of CD68-positive cells in cortical layer V of the brain; type: in vivo, mouse
Description: Immunohistochemistry—Mice were sacrificed and whole brains were fixed in 4% paraformaldehyde:PBS overnight at 4° C. Tissues were washed in PBS and sectioned with a microtome. Forty micrometer coronal sections were processed free floating in 2% BSA, 0.2% Triton X-100, PBS through all blocking, antibody incubation, and wash steps. Sections were incubated overnight at 4° C. with primary anti rat CD68 (AbD Serotec, Oxford, UK; 1:1000). Following washes, sections were incubated with secondary Cy2-conjugated donkey anti-rat antibody (1:200, Jackson). The presence of CD68-positive cells in cortical layer V of the brain was analyzed using an epifluorescent microscope (Zeiss).
To verify the results of Example 1, the presence of CD68-positive cells in the cortical layer V of the brain was analyzed in two exemplary strains, AKR/J (average mortality on day 24) and BTBR T^+ITPR3TF/J (100% mortality on day 199).

[4] = test system: GlcCer, GlcSo, GalCer, GalSo levels in the brain; test: Sphingolipid analysis (LC-ESI-MS/MS) of brains of treated mice; type: in vivo, mouse; settings: P18
Description: Sphingolipid analysis—LC-ESI-MS/MS was performed using an ABI 4000 quadrupole-linear ion trap mass spectrometer as previously described (Farfel-Becker et al. Hum Mol Genet. 2014; 23(4):843-54). The sphingolipid internal standards were obtained from Avanti Polar Lipids (Alabaster, Ala., USA).
In the next step, the consequences of GBA1 inhibition, GlcCer accumulation, was analyzed. As expected, CBE-treated mice presented higher levels of GlcCer in the brain in comparison to the controls. The average elevation in GlcCer levels in CBE-treated brains was 3.7-fold compared to PBS-treated mice (FIG. 3C). C18, the most abundant GlcCer species in the brain, was the main GlcCer species elevated (not shown). Importantly, there was no correlation between the levels of GlcCer in the brain and life spans either in the PBS(R^2=0.1441, data not shown) or CBE conditions (R^2=0.0569, FIG. 3C). There was also no correlation between the change in GlcCer levels in each strain and the life spans (R^2=0.0311, data not shown). In addition, no correlation was found between each individual GlcCer subspecies (C14, C16, C18:1, C18, C20, C22, C24:1, C24, C26:1, and C26) and life spans under PBS and CBE conditions (data not shown).
Glucosylsphingosine (GlcSo) is another lipid known to be elevated in GD and it has been proposed as a GD biomarker (Rolfs et al. PLoS One. 2013 Nov. 20; 8(11):e79732). An average elevation of ˜36-fold in GlcSo levels was found in the CBE-treated brains as compared to the controls (FIG. 3D). The potential correlation between GlcSo levels and the life spans of mice was explored—no correlation was found either under PBS(R^2=0.068, data not shown), or in the CBE-treated brains (R^2=0.0013, FIG. 3D). Similarly to the other lipids, there was no correlation between the change in GlcSo levels and mice life spans (R^2=0.0775, data not shown).
In addition, GalCer and GalSo levels were analyzed in the brains of the treated mice (FIGS. 3E-3F).

In the case of O[C@H]1[C@H](O)[C@@H](O)[C@@H]2O[C@@H]2[C@@H]1O [CBE, Conduritol-β-epoxide], the “Average survival time” value ([1]; 129S1/SvImJ mice) is reported as 108 days, the “Average survival time” value ([1]; A/J mice) is reported as 23 days and the “Average survival time” value ([1]; AKR/J mice) is reported as 24 days. The “average mortality on day” value ([1]; AKR/J mice, CBE-treated) was 24 days, the “Average survival time” value ([1]; BALB/cJ mice) was 130 days and the “Average survival time” value ([1]; BTBR T+ITPR3TF/J mice) was 199 days. The “100% mortality on day” value ([1]; BTBR T+ITPR3TF/J mice, CBE-treated) was 199 days, the “Average survival time” value ([1]; C3H/HeJ mice) was 24 days and the “Average survival time” value ([1]; C57BL6/JolaHsd mice) was 29 days. For the same molecule, the “Average survival time” value ([1]; DBA/2J mice) was 26 days, the “Average survival time” value ([1]; FVB/NJ mice) was 106 days and the “Average survival time” value ([1]; KK/HlJ mice) was 143 days. For the same molecule, the “Average survival time” value ([1]; MOLF/Ei mice) was 41 days, the “Average survival time” value ([1]; MRL/MpJ mice) was 30 days and the “Average survival time” value ([1]; NZW/LacJ mice) was 84 days. The “Average survival time” value ([1]; PWD/Ph mice) was 119 days, the “Average survival time” value ([1]; WSB/EiJ mice) was 38 days and the “sensitivity of neurons to glutamate toxicity” value [2] was “more sensitive to the toxic effects of high concentrations of glutamate”. The “brain pathology (CD68-positive cells, cortical layer V)” value ([3]; AKR/J mice treated with CBE, sacrificed P22) was “overt brain pathology”, the “brain pathology (CD68-positive cells, cortical layer V) and mortality” value ([3]; BTBR T+ITPR3TF/J mice treated with CBE, sacrificed P208) was “less sensitive to CBE both in terms of mortality and brain pathology” and the “average elevation in GlcCer levels in the brain” value ([4]; CBE-treated brains compared to PBS-treated mice) was 3.7 fold. The “average elevation in GlcSo levels in the brain” value ([4]; CBE-treated brains compared to controls) was roughly 36 fold, the “GalCer levels in the brain” value ([4]; CBE-treated mice vs PBS) was “no elevation” and the “GalSo levels in the brain” value ([4]; CBE-treated mice vs PBS) was “no elevation”.
